Where two headings read alike, the source gives them in different places. *1 amine or outer side, *2 acyl side, *3 side chain or, on linkers, in order; H or OH if unused. Where a SMILES comes first, the peptide text is derived from it. Side-chain parts run from the residue outwards. [ ]: non-standard residue; d: D form. The star is where a group is joined. C16 diacid = O=C(O)CCCCCCCCCCCCCCC(=O)*; γGlu = O=C(O)[C@H](CCC(=O)[*:2])N[*:1]; pGlu = O=C1CC[C@@H](C(=O)O)N1; AEEA = NCCOCCOCC(=O)O
Experiments:
[1] = Elimination half-life (T1/2) estimated in Göttingen minipigs; type: in vivo
Protocol: 2-3 Göttingen minipigs were subcutaneously administered one of the GIP analogues of the present invention (1-10 nmol/kg, total volume 2-6 mL) and blood samples were collected before and up to 432 hours post subcutaneous administration.) from a central venous catheter. The catheter was flushed with saline and heparin between samples. Blood was collected into cold EDTA tubes, centrifuged and plasma was kept at −20° C. pending analyses.
Concentrations of the acylated GIP(3-30)NH2 or GIP(5-30)NH2 analogues in blood samples from Göttingen minipigs were analyzed by RIA. Analogues' immunoreactivity was determined using antiserum Ab95234, Ab95235, Ab95236, a polyclonal in-house antibody raised in rabbits specific for either the mid region of GIP(1-30)NH2 or amidated C-terminus of GIP(3-30)NH2.
In addition to the hormone analysis, blood concentrations of AT374, 380, 382-385, 392-393 were determined by LC/MS performed by Red Glead Discovery AB, Lund, Sweden. The plasma samples were precipitated by addition of 3 parts ethanol followed by thorough mixing. After centrifugation and dilution of the supernatant, the samples were analyzed by LC-MS/MS and compared with a 9-point calibration curve. The calibration curves were prepared in naïve plasma matrix from Göttingen minipigs.

human GIP receptor [2] = target: T1, human GIP receptor (Homo sapiens, UniProt P48546); assay: cAMP agonism (CisBio cAMP Dynamic 2 HTRF assay); type: cell-based; settings: HEK293, read-out: cAMP agonism, % Efficacy, Table 1C, HEK-293 cells
T1 sequence (P48546 22-466): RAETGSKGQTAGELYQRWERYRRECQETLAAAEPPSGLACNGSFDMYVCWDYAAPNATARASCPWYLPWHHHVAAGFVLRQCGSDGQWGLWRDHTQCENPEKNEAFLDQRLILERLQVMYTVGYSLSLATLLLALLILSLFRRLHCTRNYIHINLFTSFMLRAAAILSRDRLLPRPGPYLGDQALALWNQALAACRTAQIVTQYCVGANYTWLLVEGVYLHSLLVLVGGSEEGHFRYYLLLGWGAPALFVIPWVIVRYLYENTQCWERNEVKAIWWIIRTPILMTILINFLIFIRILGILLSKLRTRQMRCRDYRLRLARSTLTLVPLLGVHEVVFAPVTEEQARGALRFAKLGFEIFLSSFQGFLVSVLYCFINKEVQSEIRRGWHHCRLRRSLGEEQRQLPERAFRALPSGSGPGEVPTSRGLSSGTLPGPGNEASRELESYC
Protocol: To test for agonistic properties at the GIP receptor, compounds were diluted and added to cells as described above and incubated for 30 min at 37° C. The resulting increase in intracellular cAMP was determined using the CisBio cAMP Dynamic 2 HTRF Assay Kit as described above.

human GIP receptor [3] = target: T1, human GIP receptor; assay: cAMP antagonism (CisBio cAMP Dynamic 2 HTRF assay); type: cell-based; set-up: pCMV-Script vector; settings: Table 1C, CisBio, HEK-293 cells; for IC50: cAMP antagonism, nM (IC50), agonist GIP1-42 at EC50
Outline: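 Four-parameter fits of cAMP dose-response gave pIC50. cAMP fall was quantified by HTRF competition, ratio 665/620 nm after 60 min at room temperature, against a cAMP standard curve.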

human GIP receptor [4] = target: T1, human GIP receptor; assay: cAMP accumulation, antagonism (DiscoveRx HitHunter cAMP XS assay); type: cell-based; set-up: host or cells: COS-7 (transient, calcium phosphate; pCMV-Script vector); settings: for cAMP antagonism, % inhib: COS-7 cells, % inhibition of Emax
Outline: (§1)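 cAMP accumulation measured by HitHunter cAMP XS in COS-7 cells transiently expressing human GIP receptor, after 30 min in HBS with 1 mM IBMX at 37 °C. Antagonists preincubated 10 min before GIP giving 50-80% of maximum, then 20 min more; agonist mode used 30 min ligand exposure.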

human GIP receptor [5] = target: T1, human GIP receptor; assay: cAMP accumulation, agonism (DiscoveRx HitHunter cAMP XS assay); type: cell-based; set-up: host or cells: COS-7 (transient, calcium phosphate; pCMV-Script vector); settings: for cAMP agonism, Emax: Table 1B, DiscoveRx, COS-7 cells
Outline: as §1

[6] = sc, Table 1B, species not given, unit h, LC/MS in Göttingen minipig plasma for these IDs, subcutaneous 1-10 nmol/kg, read-out: T½ (converted)
[7] = cAMP antagonism, nM (IC50), Table 1B, DiscoveRx, transiently transfected COS-7 cells

Structure (SMILES) | half-life [1, 6] [h] | Emax (human GIP receptor [2]) [%] | cAMP antagonism, % inhib (human GIP receptor [3]) [%] | IC50 (human GIP receptor [3]) [nM] | IC50 (human GIP receptor [4]; IC50-value (GIPR antagonism), Examples 1 and 2, values of Tables 1B and 2) [nM] | cAMP antagonism, % inhib (human GIP receptor [4]; Table 1B, DiscoveRx) [%] | cAMP agonism, Emax (human GIP receptor [5]) | half-life ([1]; Göttingen, minipig, plasma, subcutaneous, Example 1, read-out: T1/2 (converted)) [h] | IC50 (human GIP receptor [4]; [7]) [nM] | Emax (human GIP receptor [5]; COS-7, read-out: cAMP agonism, Emax) [%]
CC[C@H](C)[C@H](NC(=O)[C@H](CO)NC(=O)[C@H](Cc1ccc(O)cc1)NC(=O)[C@H](CC(=O)O)NC(=O)[C@H](CO)NC(=O)[C@@H](NC(=O)[C@H](Cc1ccccc1)NC(=O)[C@@H](NC(=O)CNC(=O)[C@@H](N)CCC(=O)O)[C@@H](C)O)[C@@H](C)CC)C(=O)N[C@@H](C)C(=O)N[C@@H](CCSC)C(=O)N[C@@H](CC(=O)O)C(=O)N[C@@H](CCCNC(=N)N)C(=O)N[C@H](C(=O)N[C@@H](CCCCNC(=O)COCCOCCNC(=O)COCCOCCNC(=O)CC[C@H](NC(=O)CCCCCCCCCCCCCCC(=O)O)C(=O)O)C(=O)N[C@@H](CCC(N)=O)C(=O)N[C@@H](CCC(N)=O)C(=O)N[C@@H](CC(=O)O)C(=O)N[C@@H](Cc1ccccc1)C(=O)N[C@H](C(=O)N[C@@H](CC(N)=O)C(=O)N[C@@H](Cc1c[nH]c2ccccc12)C(=O)N[C@@H](CC(C)C)C(=O)N[C@@H](CC(C)C)C(=O)N[C@@H](C)C(=O)N[C@@H](CCC(N)=O)C(=O)N[C@@H](CCCNC(=N)N)C(N)=O)C(C)C)[C@@H](C)CC [AT374] (H-EGTFISDYSIAMDRIK([AEEA-AEEA-γGlu-C16 diacid])QQDFVNWLLAQR-NH2; N-terminus assumed) | 14 | 0 | 86 | 17.1 | 12 | 100 | No Agonism | – | – | –
CC[C@H](C)[C@H](NC(=O)[C@H](CO)NC(=O)[C@H](Cc1ccc(O)cc1)NC(=O)[C@H](CC(=O)O)NC(=O)[C@H](CO)NC(=O)[C@@H](NC(=O)[C@H](Cc1ccccc1)NC(=O)[C@@H](NC(=O)CNC(=O)[C@@H]1CCC(=O)N1)[C@@H](C)O)[C@@H](C)CC)C(=O)N[C@@H](C)C(=O)N[C@@H](CCSC)C(=O)N[C@@H](CC(=O)O)C(=O)N[C@@H](CCCNC(=N)N)C(=O)N[C@H](C(=O)N[C@@H](CCCCNC(=O)COCCOCCNC(=O)COCCOCCNC(=O)COCCOCCNC(=O)CC[C@H](NC(=O)CCCCCCCCCCCCCCC(=O)O)C(=O)O)C(=O)N[C@@H](CCC(N)=O)C(=O)N[C@@H](CCC(N)=O)C(=O)N[C@@H](CC(=O)O)C(=O)N[C@@H](Cc1ccccc1)C(=O)N[C@H](C(=O)N[C@@H](CC(N)=O)C(=O)N[C@@H](Cc1c[nH]c2ccccc12)C(=O)N[C@@H](CC(C)C)C(=O)N[C@@H](CC(C)C)C(=O)N[C@@H](C)C(=O)N[C@@H](CCC(N)=O)C(=O)N[C@@H](CCCNC(=N)N)C(N)=O)C(C)C)[C@@H](C)CC [AT380] ([pGlu]GTFISDYSIAMDRIK([AEEA-AEEA-AEEA-γGlu-C16 diacid])QQDFVNWLLAQR-NH2) | 20 | 8 | 82 | 85.8 | – | 100 | No Agonism | 20 | 7 | –
CC[C@H](C)[C@H](NC(=O)[C@H](CO)NC(=O)[C@H](Cc1ccc(O)cc1)NC(=O)[C@H](CC(=O)O)NC(=O)[C@H](CO)NC(=O)[C@@H](NC(=O)[C@H](Cc1ccccc1)NC(=O)[C@@H](NC(=O)CNC(=O)[C@@H](N)CO)[C@@H](C)O)[C@@H](C)CC)C(=O)N[C@@H](C)C(=O)N[C@@H](CCSC)C(=O)N[C@@H](CC(=O)O)C(=O)N[C@@H](CCCNC(=N)N)C(=O)N[C@H](C(=O)N[C@@H](CCCCNC(=O)COCCOCCNC(=O)COCCOCCNC(=O)CC[C@H](NC(=O)CCCCCCCCCCCCCCC(=O)O)C(=O)O)C(=O)N[C@@H](CCC(N)=O)C(=O)N[C@@H](CCC(N)=O)C(=O)N[C@@H](CC(=O)O)C(=O)N[C@@H](Cc1ccccc1)C(=O)N[C@H](C(=O)N[C@@H](CC(N)=O)C(=O)N[C@@H](Cc1c[nH]c2ccccc12)C(=O)N[C@@H](CC(C)C)C(=O)N[C@@H](CC(C)C)C(=O)N[C@@H](C)C(=O)N[C@@H](CCC(N)=O)C(=O)N[C@@H](CCCNC(=N)N)C(N)=O)C(C)C)[C@@H](C)CC [AT516] (H-SGTFISDYSIAMDRIK([AEEA-AEEA-γGlu-C16 diacid])QQDFVNWLLAQR-NH2; N-terminus assumed) | – | 0 | 88 | – | – | 100 | No Agonism | – | 31 | –
CC[C@H](C)[C@H](NC(=O)[C@H](CO)NC(=O)[C@H](Cc1ccc(O)cc1)NC(=O)[C@H](CC(=O)O)NC(=O)[C@H](CO)NC(=O)[C@@H](NC(=O)[C@H](Cc1ccccc1)NC(=O)[C@@H](NC(=O)CNC(=O)[C@@H]1CCCN1)[C@@H](C)O)[C@@H](C)CC)C(=O)N[C@@H](C)C(=O)N[C@@H](CCSC)C(=O)N[C@@H](CC(=O)O)C(=O)N[C@@H](CCCNC(=N)N)C(=O)N[C@H](C(=O)N[C@@H](CCCCNC(=O)COCCOCCNC(=O)COCCOCCNC(=O)CC[C@H](NC(=O)CCCCCCCCCCCCCCC(=O)O)C(=O)O)C(=O)N[C@@H](CCC(N)=O)C(=O)N[C@@H](CCC(N)=O)C(=O)N[C@@H](CC(=O)O)C(=O)N[C@@H](Cc1ccccc1)C(=O)N[C@H](C(=O)N[C@@H](CC(N)=O)C(=O)N[C@@H](Cc1c[nH]c2ccccc12)C(=O)N[C@@H](CC(C)C)C(=O)N[C@@H](CC(C)C)C(=O)N[C@@H](C)C(=O)N[C@@H](CCC(N)=O)C(=O)N[C@@H](CCCNC(=N)N)C(N)=O)C(C)C)[C@@H](C)CC [AT518] (H-PGTFISDYSIAMDRIK([AEEA-AEEA-γGlu-C16 diacid])QQDFVNWLLAQR-NH2; N-terminus assumed) | – | 0 | 71 | 85.8 | – | 100 | – | – | – | 5

From patent US12187773B2, “Modified GIP peptide analogues” (Antag Therapeutics ApS, priority 2018, dated 2025)
